From US20230091810A1, “FIRST-IN-CLASS OF SHMT2 AND MTHFD2 INHIBITORS AS ANTITUMOR AGENTS” (Duquesne University of the Holy Spirit, priority 2017, published 2023)
pIC50: −log10 of the molar value. Where two headings read alike, the source gives them in different places.

What was measured:
[1] = test system: HCT116 (CTC); experiment: proliferation assay, HCT116 colon tumor cells; format: cell-based, human; conditions: folate-/glycine-free RPMI1640 with 25 nM leucovorin, 96 h, read-out: IC50s (SE) HCT116 (CTC)
Experimental: Proliferation assays were performed with engineered Chinese hamster ovary (CHO) cell lines R2 (transporter-null), PC43-10 (expresses RFC only), RT16 (FRα only), and R2/PCFT4 (PCFT only) cultured in folate-/glycine-free RPMI1640 supplemented with 25 nM leucovorin. Additional results are shown for HCT116 (colon tumor cells (CTC)), IGROV1 (epithelial ovarian cancer (EOC) cells), H460 (non-small cell lung cancer (NSCLC) cells), MIAPaCa-2 (pancreatic cancer (PaC) cells), and HPAC (PaC).
Cell culture and proliferation/protection assays. The HCT116 cell lines including the serine hydroxymethyltransferase (SHMT) 1, SHMT2, and methylene THF dehydrogenase 2 (MTHFD2) knockout (KO) cells were previously described (47,53). The H460 cell line was obtained from the American Type Culture Collection (Manassas, VA), whereas the MIA PaCa-2 cells were provided by Dr. Yubin Ge (Karmanos Cancer Institute). Cell lines were verified by STR analysis by Genetica DNA Laboratories (Burlington, NC). MTXRIIOua^R2-4 (i.e. R2) Chinese hamster ovary (CHO) cells were generously provided by Dr. Wayne Flintoff (University of Western Ontario) (54). From this parental R2 cell line, human RFC and PCFT were individually transfected to generate the isogenic CHO cell lines designated PC43-10 (RFC) and R2/PCFT4 (PCFT) (55-57). Human tumor cell lines were cultured in folate-free RPMI supplemented with 10% dialyzed fetal bovine serum (Sigma-Aldrich), 1% penicillin/streptomycin solution, 2 mM L-glutamine, and 25 nM leucovorin in a humidified atmosphere at 37° C. in the presence of 5% CO2 and 95% air. The CHO cell lines were cultured in alpha-minimal essential medium (alpha-MEM) supplemented with 10% bovine calf serum, 1% penicillin/streptomycin solution, and 2 mM L-glutamine. Additionally, the transfected CHO cell lines (i.e. R2/PCFT4 and PC43-10) were maintained under continuous selection with 1 mg/ml of G418. […]

[2] = test system: human MIA PaCa-2 pancreatic adenocarcinoma xenografts; experiment: in vivo efficacy trial with MIA PaCa-2 pancreatic cancer xenografts; design: species or system SCID mice
Experimental: Female ICR SCID mice (10 weeks old; 19 g average body weight) were implanted bilaterally with human MIA PaCa-2 tumors. […] The mice were weighed and tumors were measured with a caliper two-to-three times weekly; mice were sacrificed when the cumulative tumor burden reached 1500 mg. Tumor weights were estimated from two-dimensional measurements, where tumor mass (in mg) = (a x b^2)/2, and a and b are the tumor length and width in mm, respectively. The tumor masses from both tumors on each mouse were added together, and the total mass per mouse was used for calculations of anti-tumor activity. Quantitative end-points include: (i) tumor growth delay [T-C, where T is the median time in days required for the treatment group tumors to reach a predetermined size (e.g., 1000 mg), and C is the median time in days for the control group tumors to reach the same size; tumor-free survivors are excluded from these calculations]; and (ii) T/C (in percent) when treatment (T) and control (C) groups for the control groups reached 700 mg in size (exponential growth phase). The median value of each group was determined (including zeros). Mouse weights were monitored as a gauge of drug toxicity.
Female ICR SCID mice (10 weeks old; 19 g average body weight) were implanted bilaterally with human MIA PaCa-2 PaC tumors.
In vivo efficacy trial with MIA PaCa-2 pancreatic cancer xenografts. Methods for in vivo maintenance of MIA PaCa-2 tumor xenografts and drug efficacy evaluations are analogous to those previously described (58, 62-67). MIA PaCa-2 human pancreatic cancer cells (5 × 10^6 cells/flank) were bilaterally implanted subcutaneously with tumor fragments (30-60 mg) with a 12-gauge trocar in female […] SCID mice (NCI Animal Production Program). The mice were 10 weeks old on day 0 (tumor implant) with an average body weight of 19 g. For the efficacy trial, the mice were maintained on either a folate-deficient diet from Harlan-Teklad (TD.00434) starting 14 days before subcutaneous tumor implant to ensure serum folate levels would approximate those of humans. A separate cohort of mice was fed a folate-replete control diet from Lab Diet (5021). Mice were supplied with food and water ad libitum. Serum folate concentrations were monitored prior to tumor implant and post study by Lactobacillus casei bioassay (68). The mice in each group (folate-deficient and standard diet) were pooled before unselective distribution to the treatment and control groups. […] The drugs were dissolved in 5% ethanol (v/v), 1% Tween-80 (v/v), and 0.5% NaHCO3 and were administered intravenously (0.2 ml/injection). The mice were weighed and tumors were measured with a caliper two-to-three times weekly; mice were sacrificed when the cumulative tumor burden reached 1500 mg. Tumor weights were estimated from two-dimensional measurements, where tumor mass (in mg) = (a × b^2)/2, and a and b are the tumor length and width in mm, respectively. The tumor masses from both tumors on each mouse were added together, and the total mass per mouse was used for calculations of anti-tumor activity. Quantitative end-points include: (i) tumor growth delay [T-C, where T is the median time in days required for the treatment group tumors to reach a predetermined size (e.g., 1000 mg), and C is the median time in days for the control group tumors to reach the same size; tumor-free survivors are excluded from these calculations]; and (ii) T/C (in percent) when treatment (T) and control (C) groups for the control groups reached 700 mg in size (exponential growth phase). The median value of each group was determined (including zeros). Mouse weights were monitored as a gauge of drug toxicity.

[3] = test system: H460 cells; experiment: glycine/nucleoside protection of growth inhibition in H460 cells; format: cell-based, human; conditions: for protection from growth inhibition by combined adenosine and glycine: adenosine 60 µM plus glycine 130 µM; for protection from growth inhibition by glycine or adenosine alone: glycine 130 µM or adenosine 60 µM, singly
Experimental: We also tested the protective effects of AICA (320 µM) which is metabolized to AICAR (ZMP) (AICARFTase substrate), thus circumventing the GARFTase step in de novo purine biosynthesis (27) (see FIG. 1). […] Analogous results were obtained with HCT116 and MIA PaCa-2 tumor cells (see FIG. 14).
For proliferation assays of the HCT116, H460, and MIA PaCa2 tumor cell lines, the cells were plated in 96-well plates in an identical manner to the CHO experiments, except that the maximal drug concentration was increased to 10 µM. Glycine/nucleoside protection experiments in CHO and tumor cell lines were performed in folate- and glycine-free RPMI 1640/10% dialyzed fetal bovine serum supplemented with 25 nM leucovorin without additions, or in the presence of adenosine (60 µM), thymidine (10 µM), glycine (130 µM) and/or 5-aminoimidazole-4-carboxamide (AICA) (320 µM). Growth of metabolite-treated cells was normalized to controls treated with metabolites and vehicle (i.e., DMSO) both singly and in combination. Treatments with all metabolites were performed in parallel on the same plate for a given drug.

[4] = IV, AGF291 Q6dx3 start d3, total 23.5 mg/kg, Gemcitabine Q4dx4 start d3, total 480 mg/kg

pIC50 ([1]; Homo sapiens, HCT-116)	weight loss (median nadir) ([2]; nadir on day 17 for AGF291, day 6 for GEM, completely reversible after cessation of therapy)	Compound	Mean Body Weight Loss (g/mouse) [2, 4]	Percent Body Weight Loss [2, 4]	median tumor burden on day 14 ([2]; day 14, control cohort 1321 mg)	Median Tumor Burden in mg on d16 (range) ([2]; day 16, IV, AGF291 total 23.5 mg/kg, Gemcitabine total 480 mg/kg)	Tumor Free on d52 ([2]; day 52, mice tumor free/total)	Tumor Growth Delay (T-C) ([2]; median T-C to reach 1000 mg, AGF291 total 23.5 mg/kg, Gemcitabine total 480 mg/kg)	Time to 1000 mg in days (range) ([2]; median, IV, AGF291 total 23.5 mg/kg, Gemcitabine total 480 mg/kg)	T/C% ([2]; treated/control median tumor burden, AGF291 7.75 mg/kg/inj Q6dx3, GEM 120 mg/kg/inj every 4 days, start day 3)	protection from growth inhibition by combined adenosine and glycine [3]	protection from growth inhibition by glycine or adenosine alone [3]	pIC50 [1]	reversal of growth inhibition by AICA (with glycine) ([3]; AICA 320 µM with glycine)	T-C (1000 mg) ([2]; AGF347 Q2dx8 at 15 mg/kg/inj, total dose 120 mg/kg, start day 3)	mice disease-free at 122 days ([2]; AGF347 Q2dx8 at 15 mg/kg/inj, total dose 120 mg/kg, 122 days)
5.64	9%	Nc1nc2ccn(CCCc3ccc(C(=O)N[C@@H](CCC(=O)O)C(=O)O)cc3)c2c(=O)[nH]1 [AGF291]	-1.8 g/mouse	-8.9%	256 mg	334 (0-1221) mg	0/5	10.5 days	23.0 (15.0-51) days	19%	substantially protective	neither glycine nor adenosine alone was fully protective				
		Nc1nc2ccn(CCCCCc3ccc(C(=O)N[C@@H](CCC(=O)O)C(=O)O)s3)c2c(=O)[nH]1 [AGF320]									substantially protective	neither glycine nor adenosine alone was fully protective	6.13	modestly (and incompletely) reversed		
		(2-amino-4-oxo-3,4-dihydro-5H-pyrrolo[3,2-d]pyrimidin-5-yl)butyl)-2-fluorobenzoyl)-L-glutamic acid [AGF347]									substantially protective	neither glycine nor adenosine alone was fully protective	6.36		54 days	1/5
